Columns and labels:
[1] = molecular target: T1, IKZF1 ZNF2_ZNF3 Q1F degron-tagged CD19 CAR (Homo sapiens, UniProt Q13422, Q146F); assay: Degradation of Q1F degron-tagged CD19 CAR in Jurkat cells (flow cytometry of CAR levels); type: cell-based; conditions: for DC50: Jurkat cells expressing CD19 CAR tagged with IKZF1 ZNF2_ZNF3 Q1F, 18 hours at 37° C., CAR levels normalized to untreated cells, read-out: Q1F Jurkat IC50; for Dmax: Ymax is the % protein degraded, Jurkat cells expressing Q1F degron-tagged CD19 CAR, 18 hours, read-out: Q1F Jurkat-YMax
T1 construct: ZNF2_ZNF3 Q1F degron (GERPFFCNQCGASFTQKGNLLRHIKLHSGEKPFKCHLCNYACRRRDALTGHLRTHS); fused on or other part: anti-CD19 scFv, CD28 transmembrane domain, 4-1BB costimulatory domain, CD3 zeta signaling domain (the CAR that carries the degron), and Nluc
T1 sequence (Q13422 whole entry Q146F, the tested form may be a part): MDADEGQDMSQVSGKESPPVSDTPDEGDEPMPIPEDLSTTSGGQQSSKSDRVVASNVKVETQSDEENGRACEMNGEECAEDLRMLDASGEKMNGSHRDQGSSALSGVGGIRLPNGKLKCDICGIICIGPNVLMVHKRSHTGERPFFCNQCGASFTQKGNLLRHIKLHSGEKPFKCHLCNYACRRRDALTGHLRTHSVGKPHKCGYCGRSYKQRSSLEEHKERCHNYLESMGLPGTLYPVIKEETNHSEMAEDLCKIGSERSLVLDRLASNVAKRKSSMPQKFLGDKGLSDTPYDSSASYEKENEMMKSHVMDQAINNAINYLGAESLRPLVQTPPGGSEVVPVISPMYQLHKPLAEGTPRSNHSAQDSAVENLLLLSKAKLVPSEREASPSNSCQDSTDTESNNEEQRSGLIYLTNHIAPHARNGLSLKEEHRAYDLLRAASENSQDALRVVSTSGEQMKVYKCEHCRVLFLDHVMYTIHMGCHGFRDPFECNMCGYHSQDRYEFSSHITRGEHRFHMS
From the text: Q1F degron-targeting compounds were screened in Jurkat cells engineered to express a IKZF1 ZNF2_ZNF3 Q1F. The cell line was generated with lentiviral vectors containing CD19 CARs tagged with IKZF1 ZNF2_ZNF3 QIF Nluc, which were transduced into Jurkat cells. The CD19 CAR comprised an anti-CD19 scFv, a CD28 transmembrane domain, a 4-1BB costimulatory domain, a CD3ζ signaling domain, and a ZNF2_ZNF3 Q1F degron (GERPFFCNQCGASFTQKGNLLRHIKLHSGEKPFKCHLCNYACRRRDALTGHLRTHS; SEQ ID NO: 1; Q1F substitution underlined). Transduced cells were treated with a titration of each small molecule or no drug and then incubated at 37° C. for 18 hours. Cells were washed and stained with appropriate staining reagent to measure CAR levels. The cells were incubated at 4° C. in the staining reagents for 20 mins and then washed 3 times before being read on the flow cytometer. CAR levels were normalized to cells that had not been treated with drug. EC50 and Ymin values were calculated using the resulting titration curve. This identified small molecules that potently degraded the Q1F degron-tagged CARs (Table 1).
(§1) To determine the EC50 value of a compound for the degradation of a given substrate (concentration of compound that achieves half the maximum degradation observed), a four-parameter logistic model (sigmoidal dose-response model) (FIT=(A+{(B−A)/1+[(C/x)D]})) where C is the inflection point (EC50), D is the […], and A and B are the low and high limits of the fit, respectively) was used. All substrate degradation curves were processed and evaluated using ActivityBase (IDBS), a data analysis software package. Ymax is the % protein degraded (Ymin=100−Ymax and is minimum percent protein remaining).

Helios = molecular target: T2, Helios (Homo sapiens, UniProt Q9UKS7); assay: Helios degradation in Jurkat/Helios/HiBit cells (Nano-Glo luminescence); type: cell-based; conditions: 18 hr, read-out: Helios Jurkat Hibit IC50
T2 construct: endogenous in cells; host or cells: Jurkat cells, CRISPR/Cas9 knock-in of HiBit at the IKZF2 locus
T2 sequence (Q9UKS7 whole entry): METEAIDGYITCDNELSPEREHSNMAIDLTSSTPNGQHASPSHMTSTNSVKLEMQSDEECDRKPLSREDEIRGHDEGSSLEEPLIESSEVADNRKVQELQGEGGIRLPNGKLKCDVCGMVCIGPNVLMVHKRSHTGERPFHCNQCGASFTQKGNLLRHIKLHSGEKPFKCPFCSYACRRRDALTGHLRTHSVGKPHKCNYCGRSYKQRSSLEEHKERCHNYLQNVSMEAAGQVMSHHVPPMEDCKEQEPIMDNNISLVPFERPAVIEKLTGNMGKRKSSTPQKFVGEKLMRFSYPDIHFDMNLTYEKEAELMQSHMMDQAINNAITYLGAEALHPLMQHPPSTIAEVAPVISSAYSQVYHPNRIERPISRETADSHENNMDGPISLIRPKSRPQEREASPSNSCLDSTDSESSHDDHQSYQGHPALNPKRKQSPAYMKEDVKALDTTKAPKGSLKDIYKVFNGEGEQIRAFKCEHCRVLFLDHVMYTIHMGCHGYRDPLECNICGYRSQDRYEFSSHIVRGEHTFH
T2 sequence (Q96SW2 whole entry, further chain): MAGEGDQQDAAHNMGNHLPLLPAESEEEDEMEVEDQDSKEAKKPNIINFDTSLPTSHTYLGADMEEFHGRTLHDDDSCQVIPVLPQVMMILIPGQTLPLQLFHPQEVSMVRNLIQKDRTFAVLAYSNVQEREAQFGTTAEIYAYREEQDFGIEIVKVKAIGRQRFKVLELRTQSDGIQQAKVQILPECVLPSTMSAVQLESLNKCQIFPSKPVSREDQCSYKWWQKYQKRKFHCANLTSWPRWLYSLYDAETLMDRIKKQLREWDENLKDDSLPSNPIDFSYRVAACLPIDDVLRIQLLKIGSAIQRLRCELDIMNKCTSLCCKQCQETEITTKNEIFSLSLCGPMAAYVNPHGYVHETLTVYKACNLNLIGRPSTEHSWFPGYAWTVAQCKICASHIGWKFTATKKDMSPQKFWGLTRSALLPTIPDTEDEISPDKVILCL
T2 sequence (Q16531 whole entry partner): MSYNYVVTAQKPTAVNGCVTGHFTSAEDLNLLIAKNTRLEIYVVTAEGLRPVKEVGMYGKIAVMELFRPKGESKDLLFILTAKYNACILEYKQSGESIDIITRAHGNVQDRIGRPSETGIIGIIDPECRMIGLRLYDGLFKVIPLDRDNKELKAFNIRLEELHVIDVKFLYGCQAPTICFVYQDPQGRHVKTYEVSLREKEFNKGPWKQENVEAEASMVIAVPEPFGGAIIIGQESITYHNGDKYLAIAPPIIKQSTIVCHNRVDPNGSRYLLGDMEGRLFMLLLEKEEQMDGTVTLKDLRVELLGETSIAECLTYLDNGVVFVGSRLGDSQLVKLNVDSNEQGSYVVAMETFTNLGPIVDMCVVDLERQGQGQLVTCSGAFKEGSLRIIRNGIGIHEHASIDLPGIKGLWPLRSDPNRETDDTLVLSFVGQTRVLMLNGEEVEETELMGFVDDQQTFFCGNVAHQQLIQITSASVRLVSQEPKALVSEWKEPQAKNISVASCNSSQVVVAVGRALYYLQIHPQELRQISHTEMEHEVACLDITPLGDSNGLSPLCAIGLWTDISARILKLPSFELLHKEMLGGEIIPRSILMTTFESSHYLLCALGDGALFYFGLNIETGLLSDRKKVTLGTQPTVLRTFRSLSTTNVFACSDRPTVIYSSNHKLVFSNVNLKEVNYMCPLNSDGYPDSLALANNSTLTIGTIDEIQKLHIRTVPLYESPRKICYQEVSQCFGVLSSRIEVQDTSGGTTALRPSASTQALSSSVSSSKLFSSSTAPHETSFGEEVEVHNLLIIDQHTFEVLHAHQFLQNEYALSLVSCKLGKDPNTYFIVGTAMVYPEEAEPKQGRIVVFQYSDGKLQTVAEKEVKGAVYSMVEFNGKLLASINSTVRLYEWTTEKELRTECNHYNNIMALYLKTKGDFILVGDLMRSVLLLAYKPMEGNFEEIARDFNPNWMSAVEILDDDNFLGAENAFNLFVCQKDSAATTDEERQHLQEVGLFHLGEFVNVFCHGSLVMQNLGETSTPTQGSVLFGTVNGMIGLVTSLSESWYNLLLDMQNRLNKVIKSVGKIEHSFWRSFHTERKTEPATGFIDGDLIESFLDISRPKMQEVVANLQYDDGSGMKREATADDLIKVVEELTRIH
Procedure: For Helios, a stable Jurkat cell line was engineered using CRISPR/Cas9 to insert an in-frame HiBit tag into the carboxy-terminal reading frame of the IKZF2 gene. The sequence of human Helios is shown below:
Test compounds were transferred to 1536 well plates using an acoustic dispenser, and Jurkat/Helios/HiBit cells in DMEM/10% FCS were plated at 10,000 cells/well in a final volume of 5 μL. Cells were incubated at 37 C, 95% RH for 18 hr. Luciferase activity was measured by adding 2 μL/well of Nano-Glo reagent (Promega), incubating at RT for 30 min, and reading luminescence on a microtiter plate reader.
as §1

Row | Compound | DC50 [1] [nM] | Dmax [1] [%] | DC50 (Helios) [nM]
1 | Cc1ccc(CN2CCC(O)(c3c(F)cc4c(c3F)CN(C3CCC(=O)NC3=O)C4=O)CC2)cc1C (stereo not drawn) [Compound 43, 3-[5-[1-[(3,4-dimethylphenyl)methyl]-4-hydroxy-4-piperidyl]-4,6-difluoro-1-oxo-isoindolin-2-yl]piperidine-2,6-dione] | 2.75 | 80.2 | ≥ 10000
2 | O=C1CCC(N2Cc3c(cc(F)c(C4(O)CCN(Cc5ccc6nc[nH]c6c5)CC4)c3F)C2=O)C(=O)N1 (stereo not drawn) [Compound 44, 3-[5-[1-(3H-benzimidazol-5-ylmethyl)-4-hydroxy-4-piperidyl]-4,6-difluoro-1-oxo-isoindolin-2-yl]piperidine-2,6-dione] | 120 | 82.1 | ≥ 10000
3 | Cc1ccc(CN2CCC(c3c(F)cc4c(c3F)CN(C3CCC(=O)NC3=O)C4=O)CC2)cc1 (stereo not drawn) [Compound 45, 3-(4,6-difluoro-5-(1-(4-methylbenzyl)piperidin-4-yl)-1-oxoisoindolin-2-yl)piperidine-2,6-dione] | 0.343 | 90.6 | ≥ 10000
4 | O=C1CCC(N2Cc3c(cc(F)c(C4CCN(Cc5cc(F)ccc5-n5cccn5)CC4)c3F)C2=O)C(=O)N1 (stereo not drawn) [Compound 47, 3-(4,6-difluoro-5-(1-(5-fluoro-2-(1H-pyrazol-1-yl)benzyl)piperidin-4-yl)-1-oxoisoindolin-2-yl)piperidine-2,6-dione] | 2.5 | 88.8 | ≥ 10000
5 | Cc1cc(Br)cnc1CN1CCC(c2c(F)cc3c(c2F)CN(C2CCC(=O)NC2=O)C3=O)CC1 (stereo not drawn) [Compound 48, 3-(5-(1-((5-bromo-3-methylpyridin-2-yl)methyl)piperidin-4-yl)-4,6-difluoro-1-oxoisoindolin-2-yl)piperidine-2,6-dione] | 2.24 | 87.8 | ≥ 10000
6 | O=C1CCC(N2Cc3c(cc(F)c(C4CCN(Cc5cccc(-n6cccn6)c5)CC4)c3F)C2=O)C(=O)N1 (stereo not drawn) [Compound 49, 3-(5-(1-(3-(1H-pyrazol-1-yl)benzyl)piperidin-4-yl)-4,6-difluoro-1-oxoisoindolin-2-yl)piperidine-2,6-dione] | 0.108 | 91 | ≥ 10000
7 | O=C1CCC(N2Cc3c(cc(F)c(C4CCN(Cc5ncccc5Br)CC4)c3F)C2=O)C(=O)N1 (stereo not drawn) [Compound 50, 3-(5-(1-((3-bromopyridin-2-yl)methyl)piperidin-4-yl)-4,6-difluoro-1-oxoisoindolin-2-yl)piperidine-2,6-dione] | 1.36 | 88.4 | ≥ 10000
8 | O=C1CCC(N2Cc3c(cc(F)c(C4CCN(Cc5ccc(C(F)F)cc5)CC4)c3F)C2=O)C(=O)N1 (stereo not drawn) [Compound 51, 3-(5-(1-(4-(difluoromethyl)benzyl)piperidin-4-yl)-4,6-difluoro-1-oxoisoindolin-2-yl)piperidine-2,6-dione] | 0.097 | 92 | ≥ 10000
9 | O=C1CCC(N2Cc3c(cc(F)c(C4CCN(Cc5ccc(C(F)(F)F)cc5)CC4)c3F)C2=O)C(=O)N1 (stereo not drawn) [Compound 52, 3-(4,6-difluoro-1-oxo-5-(1-(4-(trifluoromethyl)benzyl)piperidin-4-yl)isoindolin-2-yl)piperidine-2,6-dione] | 0.91 | 91.8 | ≥ 10000
10 | O=C1CCC(N2Cc3c(cc(F)c(C4CCN(Cc5ccc6ccccc6n5)CC4)c3F)C2=O)C(=O)N1 (stereo not drawn) [Compound 53, 3-(4,6-difluoro-1-oxo-5-(1-(quinolin-2-ylmethyl)piperidin-4-yl)isoindolin-2-yl)piperidine-2,6-dione] | 0.727 | 93.3 | ≥ 10000
11 | O=C1CCC(N2Cc3c(cc(F)c(C4CCN(Cc5ccc6scnc6c5)CC4)c3F)C2=O)C(=O)N1 (stereo not drawn) [Compound 54, 3-(5-(1-(benzo[d]thiazol-5-ylmethyl)piperidin-4-yl)-4,6-difluoro-1-oxoisoindolin-2-yl)piperidine-2,6-dione] | 0.114 | 93.3 | ≥ 10000
12 | O=C1CCC(N2Cc3c(cc(F)c(C4CCN(Cc5ccc(C(F)(F)F)cc5O)CC4)c3F)C2=O)C(=O)N1 (stereo not drawn) [Compound 55, 3-(4,6-difluoro-5-(1-(2-hydroxy-4-(trifluoromethyl)benzyl)piperidin-4-yl)-1-oxoisoindolin-2-yl)piperidine-2,6-dione] | 0.468 | 88.7 | ≥ 10000
13 | Cc1nc(CN2CCC(c3c(F)cc4c(c3F)CN(C3CCC(=O)NC3=O)C4=O)CC2)c(C)o1 (stereo not drawn) [Compound 56, 3-(5-(1-((2,5-dimethyloxazol-4-yl)methyl)piperidin-4-yl)-4,6-difluoro-1-oxoisoindolin-2-yl)piperidine-2,6-dione] | 0.571 | 84.4 | ≥ 10000
14 | O=C1CCC(N2Cc3c(cc(F)c(C4(O)CCN(Cc5nc6ccccc6s5)CC4)c3F)C2=O)C(=O)N1 (stereo not drawn) [Compound 57, 3-(5-(1-(benzo[d]thiazol-2-ylmethyl)-4-hydroxypiperidin-4-yl)-4,6-difluoro-1-oxoisoindolin-2-yl)piperidine-2,6-dione] | 101 | 63.2 | ≥ 10000
15 | O=C1CCC(N2Cc3c(cc(F)c(C4CCN(Cc5nc6ccccc6s5)CC4)c3F)C2=O)C(=O)N1 (stereo not drawn) [Compound 58, 3-(5-(1-(benzo[d]thiazol-2-ylmethyl)piperidin-4-yl)-4,6-difluoro-1-oxoisoindolin-2-yl)piperidine-2,6-dione] | 10.7 | 86.3 | ≥ 10000
16 | O=C1CCC(N2Cc3c(cc(F)c(C4CCN(Cc5ccc6c(c5)OC(F)(F)O6)CC4)c3F)C2=O)C(=O)N1 (stereo not drawn) [Compound 59, 3-(5-(1-((2,2-difluorobenzo[d][1,3]dioxol-5-yl)methyl)piperidin-4-yl)-4,6-difluoro-1-oxoisoindolin-2-yl)piperidine-2,6-dione] | 0.01 | 92.2 | ≥ 10000
17 | O=C1CCC(N2Cc3c(cc(F)c(C4CCN(Cc5ccc6c(c5)CCC6)CC4)c3F)C2=O)C(=O)N1 (stereo not drawn) [Compound 60, 3-(5-(1-((2,3-dihydro-1H-inden-5-yl)methyl)piperidin-4-yl)-4,6-difluoro-1-oxoisoindolin-2-yl)piperidine-2,6-dione] | 0.691 | 91.8 | ≥ 10000
18 | CS(=O)(=O)c1ccc(CN2CCC(c3c(F)cc4c(c3F)CN(C3CCC(=O)NC3=O)C4=O)CC2)cc1 (stereo not drawn) [Compound 62, 3-(4,6-difluoro-5-(1-(4-(methylsulfonyl)benzyl)piperidin-4-yl)-1-oxoisoindolin-2-yl)piperidine-2,6-dione] | 0.168 | 92.6 | ≥ 10000
19 | O=C1CCC(N2Cc3c(cc(F)c(C4CCN(Cc5cccc6ncsc56)CC4)c3F)C2=O)C(=O)N1 (stereo not drawn) [Compound 64, 3-(5-(1-(benzo[d]thiazol-7-ylmethyl)piperidin-4-yl)-4,6-difluoro-1-oxoisoindolin-2-yl)piperidine-2,6-dione] | 2.11 | 92.9 | ≥ 10000
20 | CN(CCN1CCC(c2c(F)cc3c(c2F)CN(C2CCC(=O)NC2=O)C3=O)CC1)Cc1ccccc1 (stereo not drawn) [Compound 65, 3-(5-(1-(2-(benzyl(methyl)amino)ethyl)piperidin-4-yl)-4,6-difluoro-1-oxoisoindolin-2-yl)piperidine-2,6-dione] | 1.09 | 85.5 | ≥ 10000
